According to ChEMBL document CHEMBL5500380, “Recent discovery and development of AXL inhibitors as antitumor agents” (Eur J Med Chem, 2024):

Key:
[1] = target: T1, Tyrosine-protein kinase receptor UFO (Homo sapiens, UniProt P30530); assay: Inhibition of AXL (unknown origin)
T1 sequence (P30530 whole entry): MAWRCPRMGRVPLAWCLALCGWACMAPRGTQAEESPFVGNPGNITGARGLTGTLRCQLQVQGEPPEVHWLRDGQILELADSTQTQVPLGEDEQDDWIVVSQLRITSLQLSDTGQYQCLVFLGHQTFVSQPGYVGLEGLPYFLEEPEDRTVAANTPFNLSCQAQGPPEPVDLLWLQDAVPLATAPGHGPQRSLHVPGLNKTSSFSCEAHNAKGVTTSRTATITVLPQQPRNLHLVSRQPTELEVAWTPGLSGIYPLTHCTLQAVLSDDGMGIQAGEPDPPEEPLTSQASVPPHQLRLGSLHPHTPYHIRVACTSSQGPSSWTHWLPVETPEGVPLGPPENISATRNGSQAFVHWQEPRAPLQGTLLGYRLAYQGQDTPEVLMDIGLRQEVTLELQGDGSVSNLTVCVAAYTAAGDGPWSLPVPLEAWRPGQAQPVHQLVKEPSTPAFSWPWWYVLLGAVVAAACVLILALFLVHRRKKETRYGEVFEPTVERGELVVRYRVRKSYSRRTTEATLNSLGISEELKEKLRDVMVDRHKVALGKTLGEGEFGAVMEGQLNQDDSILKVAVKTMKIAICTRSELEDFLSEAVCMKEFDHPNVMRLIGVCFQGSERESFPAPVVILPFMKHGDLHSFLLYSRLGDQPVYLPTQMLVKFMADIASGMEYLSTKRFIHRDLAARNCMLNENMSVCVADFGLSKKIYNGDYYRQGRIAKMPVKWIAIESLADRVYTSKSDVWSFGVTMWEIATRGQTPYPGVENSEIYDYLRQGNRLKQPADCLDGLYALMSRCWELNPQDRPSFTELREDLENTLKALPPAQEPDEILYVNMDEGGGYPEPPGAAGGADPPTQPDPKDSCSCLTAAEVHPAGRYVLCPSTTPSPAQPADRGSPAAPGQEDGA

[2] = target: T1, Tyrosine-protein kinase receptor UFO; assay: Inhibition of AXL (unknown origin) by HTRF kinase assay
[3] = target: Epithelial discoidin domain-containing receptor 1 (Homo sapiens, UniProt Q08345); assay: Inhibition of DDR1 (unknown origin)
[4] = target: T2, Aurora kinase A (Homo sapiens, UniProt O14965); assay: Inhibition of AURORA-A (unknown origin)
T2 sequence (O14965 whole entry): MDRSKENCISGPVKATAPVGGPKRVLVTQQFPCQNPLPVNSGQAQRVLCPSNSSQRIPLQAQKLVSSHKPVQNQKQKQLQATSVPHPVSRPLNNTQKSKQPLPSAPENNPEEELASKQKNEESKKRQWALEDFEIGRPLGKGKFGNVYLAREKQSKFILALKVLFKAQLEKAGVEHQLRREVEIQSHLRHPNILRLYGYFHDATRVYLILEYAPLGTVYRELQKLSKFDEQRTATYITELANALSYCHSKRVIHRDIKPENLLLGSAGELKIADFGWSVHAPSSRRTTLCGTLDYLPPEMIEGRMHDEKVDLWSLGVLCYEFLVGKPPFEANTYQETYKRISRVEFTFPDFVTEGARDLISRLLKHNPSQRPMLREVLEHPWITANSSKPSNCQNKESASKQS

[5] = target: Aurora kinase B (Homo sapiens, UniProt Q96GD4); assay: Inhibition of AURORA-B (unknown origin)
[6] = target: T3, Tyrosine-protein kinase Mer (Homo sapiens) (UniProt Q12866); assay: Inhibition of MER (unknown origin) at 100 nM relative to control
T3 sequence (whole entry): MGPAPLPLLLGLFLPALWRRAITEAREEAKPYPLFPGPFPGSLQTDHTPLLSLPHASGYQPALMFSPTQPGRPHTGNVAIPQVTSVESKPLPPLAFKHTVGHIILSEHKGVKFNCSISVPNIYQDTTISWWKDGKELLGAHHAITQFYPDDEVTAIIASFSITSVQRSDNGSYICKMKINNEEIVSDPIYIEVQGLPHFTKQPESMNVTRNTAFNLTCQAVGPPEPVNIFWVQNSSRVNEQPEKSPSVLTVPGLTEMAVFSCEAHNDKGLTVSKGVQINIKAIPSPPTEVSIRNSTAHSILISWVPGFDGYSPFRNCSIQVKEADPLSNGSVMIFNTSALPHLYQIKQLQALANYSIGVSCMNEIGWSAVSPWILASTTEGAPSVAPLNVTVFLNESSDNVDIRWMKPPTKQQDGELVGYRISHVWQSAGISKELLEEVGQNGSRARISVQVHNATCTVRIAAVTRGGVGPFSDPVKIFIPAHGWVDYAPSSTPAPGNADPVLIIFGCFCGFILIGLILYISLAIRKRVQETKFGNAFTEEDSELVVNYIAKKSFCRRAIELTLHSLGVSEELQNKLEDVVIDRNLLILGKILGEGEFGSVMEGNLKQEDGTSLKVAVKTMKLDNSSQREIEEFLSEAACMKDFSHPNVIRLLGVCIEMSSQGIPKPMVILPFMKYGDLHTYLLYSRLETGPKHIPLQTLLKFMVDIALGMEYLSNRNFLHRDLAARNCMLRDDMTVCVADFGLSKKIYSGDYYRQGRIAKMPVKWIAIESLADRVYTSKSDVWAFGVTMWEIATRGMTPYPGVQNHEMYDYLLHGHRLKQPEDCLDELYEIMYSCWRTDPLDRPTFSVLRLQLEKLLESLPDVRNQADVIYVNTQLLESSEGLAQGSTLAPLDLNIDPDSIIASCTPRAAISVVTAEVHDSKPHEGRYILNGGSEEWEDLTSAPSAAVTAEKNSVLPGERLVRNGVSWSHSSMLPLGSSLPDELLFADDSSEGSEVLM

[7] = target: Hepatocyte growth factor receptor (Homo sapiens) (UniProt P08581); assay: Inhibition of c-MET (unknown origin) at 100 nM relative to control
[8] = target: T4, Tyrosine-protein kinase receptor TYRO3 (Homo sapiens) (UniProt Q06418); assay: Inhibition of TYRO3 (unknown origin) at 100 nM relative to control
T4 sequence (whole entry): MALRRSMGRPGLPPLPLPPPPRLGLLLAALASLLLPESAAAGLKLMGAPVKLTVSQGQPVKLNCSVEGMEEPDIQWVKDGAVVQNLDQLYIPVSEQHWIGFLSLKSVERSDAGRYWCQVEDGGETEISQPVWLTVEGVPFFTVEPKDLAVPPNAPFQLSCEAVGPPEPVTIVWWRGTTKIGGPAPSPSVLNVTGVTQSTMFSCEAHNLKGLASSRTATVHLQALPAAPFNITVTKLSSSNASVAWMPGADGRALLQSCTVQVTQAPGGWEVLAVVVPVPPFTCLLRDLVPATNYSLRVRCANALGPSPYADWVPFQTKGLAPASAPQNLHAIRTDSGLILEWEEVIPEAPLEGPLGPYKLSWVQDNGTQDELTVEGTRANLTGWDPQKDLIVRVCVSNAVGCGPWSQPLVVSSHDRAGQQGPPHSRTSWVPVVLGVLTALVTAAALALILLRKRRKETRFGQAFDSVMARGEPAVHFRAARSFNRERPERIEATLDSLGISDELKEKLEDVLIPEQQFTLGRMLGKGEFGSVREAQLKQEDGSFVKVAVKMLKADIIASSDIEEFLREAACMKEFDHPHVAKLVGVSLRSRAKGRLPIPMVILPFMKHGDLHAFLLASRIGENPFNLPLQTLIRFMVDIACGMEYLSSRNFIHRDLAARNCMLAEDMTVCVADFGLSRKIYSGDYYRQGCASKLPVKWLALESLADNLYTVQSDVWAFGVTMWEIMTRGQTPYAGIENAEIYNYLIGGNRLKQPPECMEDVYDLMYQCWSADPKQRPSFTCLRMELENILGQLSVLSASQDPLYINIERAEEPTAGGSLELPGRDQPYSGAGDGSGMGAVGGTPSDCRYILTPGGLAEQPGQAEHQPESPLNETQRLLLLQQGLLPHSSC

Hepatocyte growth factor receptor (Homo sapiens), sequence (P08581 whole entry): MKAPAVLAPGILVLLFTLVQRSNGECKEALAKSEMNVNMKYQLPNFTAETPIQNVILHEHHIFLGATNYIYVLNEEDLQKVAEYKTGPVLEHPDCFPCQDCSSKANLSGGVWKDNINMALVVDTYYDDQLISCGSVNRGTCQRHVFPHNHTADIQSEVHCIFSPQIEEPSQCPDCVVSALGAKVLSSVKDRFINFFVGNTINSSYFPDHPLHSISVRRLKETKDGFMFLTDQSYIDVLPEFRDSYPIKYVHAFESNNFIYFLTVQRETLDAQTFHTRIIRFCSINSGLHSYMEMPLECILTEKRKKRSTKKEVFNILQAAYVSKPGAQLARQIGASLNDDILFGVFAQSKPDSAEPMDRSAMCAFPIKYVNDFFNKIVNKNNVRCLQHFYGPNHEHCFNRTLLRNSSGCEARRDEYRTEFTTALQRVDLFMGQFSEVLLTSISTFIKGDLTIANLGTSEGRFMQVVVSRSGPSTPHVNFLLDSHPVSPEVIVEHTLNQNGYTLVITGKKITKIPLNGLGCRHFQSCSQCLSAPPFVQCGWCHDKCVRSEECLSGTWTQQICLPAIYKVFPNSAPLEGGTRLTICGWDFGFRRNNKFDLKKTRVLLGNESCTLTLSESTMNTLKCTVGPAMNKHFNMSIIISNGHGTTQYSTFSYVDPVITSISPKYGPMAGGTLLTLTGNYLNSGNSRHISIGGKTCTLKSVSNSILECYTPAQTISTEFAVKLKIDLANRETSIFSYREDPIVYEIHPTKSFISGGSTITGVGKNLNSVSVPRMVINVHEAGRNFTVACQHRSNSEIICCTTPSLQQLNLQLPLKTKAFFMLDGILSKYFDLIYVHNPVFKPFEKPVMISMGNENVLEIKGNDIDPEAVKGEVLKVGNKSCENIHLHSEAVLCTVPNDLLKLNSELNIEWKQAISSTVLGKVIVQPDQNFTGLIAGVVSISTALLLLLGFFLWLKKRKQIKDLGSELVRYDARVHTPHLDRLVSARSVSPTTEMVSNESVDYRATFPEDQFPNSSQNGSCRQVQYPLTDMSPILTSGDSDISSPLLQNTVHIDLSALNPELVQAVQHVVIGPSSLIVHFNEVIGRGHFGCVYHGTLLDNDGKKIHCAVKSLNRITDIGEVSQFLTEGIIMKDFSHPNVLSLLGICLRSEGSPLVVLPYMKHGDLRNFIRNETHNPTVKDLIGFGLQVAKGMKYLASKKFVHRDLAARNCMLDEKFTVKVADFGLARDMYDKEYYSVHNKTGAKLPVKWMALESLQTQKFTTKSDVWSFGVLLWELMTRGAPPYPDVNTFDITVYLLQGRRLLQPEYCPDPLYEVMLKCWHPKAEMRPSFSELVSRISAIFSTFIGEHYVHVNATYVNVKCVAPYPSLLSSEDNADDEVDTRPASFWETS
Aurora kinase B, sequence (Q96GD4 whole entry): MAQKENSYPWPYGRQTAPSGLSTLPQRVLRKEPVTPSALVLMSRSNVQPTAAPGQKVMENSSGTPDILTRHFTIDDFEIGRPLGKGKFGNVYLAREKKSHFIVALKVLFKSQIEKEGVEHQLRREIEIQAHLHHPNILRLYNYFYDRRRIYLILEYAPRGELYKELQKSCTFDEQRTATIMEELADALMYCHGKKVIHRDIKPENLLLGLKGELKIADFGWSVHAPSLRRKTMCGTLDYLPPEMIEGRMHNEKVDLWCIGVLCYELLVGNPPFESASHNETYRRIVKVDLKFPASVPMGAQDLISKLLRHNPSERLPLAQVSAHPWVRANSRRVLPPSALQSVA
Epithelial discoidin domain-containing receptor 1, sequence (Q08345 whole entry, the tested form may be a part): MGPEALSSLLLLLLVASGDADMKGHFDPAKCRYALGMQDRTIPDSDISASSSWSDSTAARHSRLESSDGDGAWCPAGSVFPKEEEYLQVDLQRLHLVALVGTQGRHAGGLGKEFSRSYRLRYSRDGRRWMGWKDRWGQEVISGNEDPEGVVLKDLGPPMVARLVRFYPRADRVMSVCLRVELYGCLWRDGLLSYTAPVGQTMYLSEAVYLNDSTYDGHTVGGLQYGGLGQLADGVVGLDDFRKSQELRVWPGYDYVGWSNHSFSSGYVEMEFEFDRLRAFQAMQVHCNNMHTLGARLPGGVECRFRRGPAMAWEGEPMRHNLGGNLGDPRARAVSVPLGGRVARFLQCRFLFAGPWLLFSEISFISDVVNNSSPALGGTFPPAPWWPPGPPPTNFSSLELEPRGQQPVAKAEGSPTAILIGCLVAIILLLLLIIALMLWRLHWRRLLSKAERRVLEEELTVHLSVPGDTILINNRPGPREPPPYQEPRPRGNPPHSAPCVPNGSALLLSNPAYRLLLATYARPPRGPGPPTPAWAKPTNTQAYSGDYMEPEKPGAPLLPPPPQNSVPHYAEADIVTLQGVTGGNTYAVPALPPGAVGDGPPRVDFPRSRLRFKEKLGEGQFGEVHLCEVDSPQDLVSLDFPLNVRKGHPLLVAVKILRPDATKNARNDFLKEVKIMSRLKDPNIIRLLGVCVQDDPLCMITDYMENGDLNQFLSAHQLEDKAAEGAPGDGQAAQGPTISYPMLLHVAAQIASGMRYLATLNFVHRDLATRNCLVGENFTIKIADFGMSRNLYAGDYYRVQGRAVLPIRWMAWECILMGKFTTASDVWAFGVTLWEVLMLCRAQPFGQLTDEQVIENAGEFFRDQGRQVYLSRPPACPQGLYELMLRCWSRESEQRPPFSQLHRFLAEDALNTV

IC50 [1] [nM]	further results	Structure (SMILES)
19		Nn1cc(-c2n[nH]c3cc(Cl)c(NC4CCNC4)cc23)cn1 (centres undefined)
	IC50 [2]: 0.7 nM	COc1cc2nccc(Oc3ccc(NC(=O)c4cc5c(n(-c6ccccc6)c4=O)CCCC5=O)nc3)c2cc1OC [TAMNORZATINIB]
4	IC50 [3]: 22.2 nM; IC50 [4]: 192 nM; IC50 [5]: 114 nM	CCc1ccc2c(c1)c(=O)c(C(=O)Nc1ccc(Oc3ccnc4cc(OC)c(OC)cc34)c(F)c1)c(C)n2C
1.2		COc1cc2nccc(Oc3ccc(NC(=O)c4c5n(n(-c6cc(F)ccc6F)c4=O)CCCC5)cc3F)c2cc1OC
9		O=C(Nc1ccc(Oc2ccnc3c2CCN3)c(F)c1)c1c[nH]cc(-c2ccc(F)cc2)c1=O
3.5	inhibition [6]: 100%; inhibition [7]: 98%; inhibition [8]: 71%	COc1cc2nccc(Oc3ccc(NC(=O)c4c5n(n(-c6ccc(F)cc6)c4=O)CCCC5)cc3F)c2cc1OC
2600		CN1CCc2ccc(Nc3ncc(Cl)c(Nc4ccccc4S(=O)(=O)N(C)C)n3)cc2C1
5.9		COc1cc2ncnc(Oc3ccc(NC(=O)c4c5n(n(-c6cccc(F)c6)c4=O)CCCC5)cc3F)c2cc1OC
